The text below walks through data of patent publication US20040103453A1, “Lipoxygenase genes, promoters, transit peptides and proteins thereof” (priority 2000, published 2004).

“Also recorded” adds a separate entry of the source.

For one experiment, the system named is RCI-1 transcripts. Nature of the experiment: RNA gel blot (Northern) analysis of RCI-1 transcripts in treated rice leaves. The format is in vivo, Oryza sativa cv. Kusabue. Conditions: for RCI-1 transcript (mRNA) accumulation: RNA from chemically treated rice leaves, INA and BTH sprayed onto leaves, probenazole by soil drench.
For the next experiment, the system named is RLL2 transcripts. Nature of the experiment: RNA gel blot probed with rice LOX cDNA RLL2. Conditions: RNA from treated rice plants. The format is in vivo.
The subject of experiment [1] is lipoxygenase (LOX) enzyme activity in rice leaves. Briefly: LOX enzyme activity in BTH-treated rice leaves. In kind it is in vivo, Oryza sativa cv. Kusabue. Conditions: between 24 and 48 h after BTH treatment.
The subject of another experiment is L-2 transcripts. Briefly: RNA gel blot probed with rice LOX cDNA L-2. In kind it is in vivo. As to conditions: RNA from treated rice plants.
Another experiment has as its system rice blast disease. Conditions: treatment of rice; cited from earlier work.
For experiment [2], the system named is lipoxygenase (LOX, linoleate:oxygen oxidoreductase, EC 1.13.11.12). As to conditions: treatment of rice; cited from earlier work.
A short description of experiment [3]: HPLC analysis of reaction products of recombinant RCI-1. As to conditions: linoleic acid or linolenic acid as substrate, 0.1 M Tris-HCl pH 8.8, 20 min, 30° C.
Description: Lipoxygenase activity is measured at 30° C. photospectrometrically at 234 nm using linoleic acid as a substrate and 5-20 μl from the recombinant RCI-1 enzyme extract (Bohland et al. (1997) Plant Physiol. 114, 679-685). For determination of the pH optimum, different buffers with overlapping pH ranges (pH 4-6: 0.1 M Na-acetate; pH 6-8: 0.1 M Na-phosphate; pH 8-10: 0.1 M Tris-HCl) are used. The molar extinction coefficient of the reaction product, 2.5×10^7 cm^−1 mol^−1, is used for the calculation of the enzyme activity. […] The products of the enzymatic activity of the RCI-1 protein are analyzed by HPLC (Bohland et al. (1997) Plant Physiol. 114, 679-685). Approximately 0.2 nkat enzyme activity obtained from recombinant RCI-1 protein is incubated with 50 μl substrate solution (10 μl of linoleic or α-linolenic acid, respectively; 20 μl ethanol, 20 μl H2O) in 2 ml 0.1 M Tris-HCl pH 8.8 for 20 min. at 30° C. The reaction is stopped by lowering the pH to 3.0 with diluted HCl, and the hydroperoxides are extracted with 1 ml of CHCl3 followed by two washes with water. […] Products are detected at 234 nm and standards are obtained from Biomol (Hamburg, Germany) or prepared from linoleic or α-linolenic acid by incubation with soybean lipoxygenase, respectively, as described (Bohland et al. (1997) Plant Physiol. 114, 679-685).
The nature of experiment [4]: Photospectrometric lipoxygenase activity of recombinant RCI-1 enzyme extract. As to conditions: linoleic acid as substrate.
Description: Production of recombinant RCI-1 protein is induced by addition of 1 mM IPTG (final concentration) to a 250 ml E. coli M15 culture grown to an OD600 of 1 and further incubation on a shaker overnight at 19° C. The cells are harvested by centrifugation (5000 g, 10 minutes) and resuspended in 5 ml lysis buffer (50 mM Na-phosphate buffer pH 7.5 containing 1 mg l-1 lysozyme). After a 30 minute incubation on ice, the lysate is centrifuged (12000 g, 15 minutes) and the pellet is transferred into a mortar and ground in extraction buffer (0.1 M K-phosphate buffer pH 7, 30 mg polyvinyl-poly-pyrrolidone, 1 mM EDTA). After centrifugation, the clear supernatant is used as an enzyme preparation for further biochemical analysis.
Lipoxygenase activity is measured at 30° C. photospectrometrically at 234 nm using linoleic acid as a substrate and 5-20 μl from the recombinant RCI-1 enzyme extract (Bohland et al. (1997) Plant Physiol. 114, 679-685). For determination of the pH optimum, different buffers with overlapping pH ranges (pH 4-6: 0.1 M Na-acetate; pH 6-8: 0.1 M Na-phosphate; pH 8-10: 0.1 M Tris-HCl) are used. The molar extinction coefficient of the reaction product, 2.5×10^7 cm^−1 mol^−1, is used for the calculation of the enzyme activity.
Where [5] appears, read: rice leaves treated with INA, time course, RNA gel blot.

As to `CSC(=O)c1cccc2nnsc12` [BTH, benzo(1,2,3)thiadiazole-7-carbothioic acid S-methyl ester], in the experiment with RCI-1 transcripts, the “RCI-1 transcript (mRNA) accumulation” value is listed as “induces RCI1 transcript accumulation; also recorded: strong hybridization signal”. Moreover, in the experiment with RLL2 transcripts, the RLL2 transcript accumulation result is “do not accumulate”. Moreover, in experiment [1], the “LOX enzymatic activity in rice leaves” value is reported as “significant increase”. The L-2 transcript accumulation entry with L-2 transcripts is “do not accumulate”.

For the molecule `O=C(O)c1cc(Cl)nc(Cl)c1` [INA, 2,6-dichloroisonicotinic acid], the “RCI-1 transcript (mRNA) accumulation” value in the experiment on RCI-1 transcripts was “strong hybridization signal”. Moreover, in the experiment on RCI-1 transcripts (setting [5]), the “time after treatment at which RCI-1 transcripts reach maximal levels” value lay within 24 to 48 h and the “time after treatment at which RCI-1 transcripts start to accumulate” value came out at 8 h. In addition, the RLL2 transcript accumulation result in the experiment on RLL2 transcripts is reported as “do not accumulate”. Besides, the L-2 transcript accumulation result with L-2 transcripts is “do not accumulate”.

Regarding `N#CCNC(=O)c1ccnc(Cl)c1` [N-cyanomethyl-2-chloroisonicotinamid], the “resistance inducing activity against rice blast disease” value in the experiment on rice blast disease is recorded as “good resistance inducing activity”. In addition, the “induction of the enzyme lipoxygenase” value in experiment [2] is listed as “induced the enzyme lipoxygenase”.

Consider `CC/C=C\C[C@H]1C(=O)CC[C@@H]1CC(=O)O` [jasmonic acid], for which the RCI-1 transcript levels result with RCI-1 transcripts (7 to 12 h after spraying of a 1 mM solution onto rice leaves) is “strongly increase”. Further, the “RCI-1 transcript (mRNA) accumulation” value in the experiment on RCI-1 transcripts was “strong hybridization signal”.

As to `C=CCOC1=NS(=O)(=O)c2ccccc21` [probenazole], the “RCI-1 transcript (mRNA) accumulation” value with RCI-1 transcripts was “induces RCI1 transcript accumulation; also recorded: strong hybridization signal”. The “time course of RCI-1 mRNA accumulation” value with RCI-1 transcripts (probenazole soil drench, compared with INA and BTH spraying) is “delayed time course”. Moreover, the RLL2 transcript accumulation result with RLL2 transcripts is reported as “do not accumulate”. In addition, the L-2 transcript accumulation result with L-2 transcripts was “do not accumulate”.

B1: RCI-1: rice lipoxygenase protein of 922 amino acids (SEQ ID NO:7) encoded by RCI-1 cDNA, expressed recombinantly in E. coli (protein, listed as Oryza sativa)
chain: MLTATQTLAPAVLSRSHGAPSSFSSQPRRTAAAASRVSCTRVGALSEVVNGELVVGDQEQTTDDLLTRHKNVVADYTLSATVTVSLKQDDSTPQKVADMVNRDWLFLDFFSSHIEGMHTEPQLARYSHMDGKGSFIYEASFSIPSSLDAVGAVQVVNRYSSEVYISDIDVHLCGGRHQWTDITFHCNSWIDYNPNDQRFFFPLKSYLPSQTPRGVKNLRKEELRAIRGDGRGERKEWERIYDYDVYNDLGDPDNDPATRRPVLGGRGRPYPRRCRTGRRRCRTDPSSESPPAKDGAGIYVPRDEAFTERKAGAFATKKALSALSAFTTAQRVSGDRRRGFPSLAAIDALYEDGYKNRPSSSQQEADNLEGYFREVLQKQVKLLLKGEKEEFKEELRKVFKFQTPEIHDKDKLAWFRDEEFARQTLAGMNPLSIQLVRDTDFPIFSKLDEETYGPGDSLITKELIEEQINGVMTAEEAVEKKKLFMLDYHDVLLPFVHAVRELDDTTLYASRTLFFLTEDGTLRPIAIELTRPKSPNTPQWRQVFTPGSSVAASWLWQLAKTHVLAHDTGYHQLVSHWLRTHCCVEPYVIAANRRLSQMHPIYRLLHPHFRFTMEINAQARGMLINANGIIESAFAPGKLCMELSSAVYDKFWRFDMEALPADLIRRGMAIECEDGKLELTIEDYPYANDGLLIWDSIKEWVSDYVNHYYQLASDIHMDKELQGWWNEVRTKGHPDKEEGWPELNCHGSLVEVLTTIIWVASGHHAAVNFGQYPYAGYFPNRPTIARRNMPTEGQACSHDGMQPTFVEDPVRVLLDTFPSQYQTTLVLPVLNLLSSHSPGEEYMGTHAESAWMADREVRAAFGRFNERMMSIAEMIDCRNKDPERKNRQGPGVVPYVLLKPSYGDPKDMTSVMEMGIPNSISI
Turning to B1, in experiment [3], the “reaction product (9S)-hydroperoxy-(10E,12Z,15Z) octadecatrienoic acid (9-HPOD)” value is on record as “only detected in minor amounts” and the “reaction product (13S)-hydroperoxy-(9Z,11E,15Z)-octadecatrienoic acid (13-HPOD)” value is on record as “predominant product”. For the same molecule, in experiment [4] (30° C., 234 nm, control extracts no detectable LOX activity), the “LOX activity of crude E. coli extract” value is recorded as “increased LOX activity”. The “pH of maximal LOX activity” value in experiment [4] (buffers pH 4-10) lay within 8 to 9 pH.
